Results as given in patent US20090098226A1, “COMPOSITION FOR COSMETIC OR PHARMACEUTICAL-DERMATOLOGICAL USE” (priority 2006, published 2009).

Tests used:
[1] = system: COX2; experiment: Test 3: COX2 expression after oxidative insult (previous test repeated, 3 hours and 24 hours); type: cell-based, human
Experimental: (§1) Tests on the capacity of the indicated preparations to prevent oxidative damage, induced in dermal tissue cells, were conducted on human fibroblasts which were isolated then cultivated in a suitable culture medium. Oxidative stress was induced by adding a mixture of 40 mM xanthine and 2 mM hypoxanthine to the culture medium, a mixture with known ability to induce formation of Reactive Oxygen Species (ROS), agents which cause cell damage up to necrosis. The preparations under examination could be added, or not, to the broth at the same time as the xanthine/hypoxanthine mixture. The contact time between the xanthine/hypoxanthine mixture and the preparations was 2 hours, at the end of which the cells were transplanted into a fresh culture medium, i.e. containing neither the stress-inducing mixture nor the substance, then allowed to quiesce for periods of 3 or 24 hours. At the end of the stated period, gene expression of the prostaglandin G/H synthase and cyclooxygenase2 (COX2) enzyme was detected which is indicative of the inflammatory state induced in cells by oxidative stress.

[2] = system: COX2; experiment: Test 2: COX2 expression in human fibroblasts after xanthine/hypoxanthine oxidative stress; type: cell-based; conditions: 24 hours after oxidative stress, insulted human fibroblasts
Experimental: as §1
Expression of COX2 (normalized fluorescence units vs housekeeping gene 18s rRNA) 24 hours after oxidative stress, in “insulted” cells in the presence of curcumin, curcumin complexed with Zn and FDP used separately, and in the presence of the ternary system.

O=P(O)(O)OC[C@H]1O[C@@](O)(COP(=O)(O)O)[C@@H](O)[C@@H]1O [FDP, Fructose 1-6 diphosphate]
COX2 expression after oxidative insult ([1]; 5 mM, 3 hours): 7.87 normalized fluorescence units vs housekeeping gene 18s rRNA
COX2 expression after oxidative insult ([1]; 5 mM, 24 hours): 7.14 normalized fluorescence units vs housekeeping gene 18s rRNA
COX2 expression after oxidative insult ([1]; 10 mM, 3 hours): 6.90 normalized fluorescence units vs housekeeping gene 18s rRNA
COX2 expression after oxidative insult ([1]; 10 mM, 24 hours): 6.45 normalized fluorescence units vs housekeeping gene 18s rRNA
Expression of COX2 ([2]; 5 mM): 7.14 normalized fluorescence units vs housekeeping gene 18s rRNA

COc1cc(/C=C/C(=O)CC(=O)/C=C/c2ccc(O)c(OC)c2)ccc1O [curcumin, Curcumin]
COX2 expression after oxidative insult ([1]; 3 μM, 3 hours): 5.76 normalized fluorescence units vs housekeeping gene 18s rRNA
COX2 expression after oxidative insult ([1]; 3 μM, 24 hours): 5.00 normalized fluorescence units vs housekeeping gene 18s rRNA
COX2 expression after oxidative insult ([1]; 6 μM, 3 hours): 5.45 normalized fluorescence units vs housekeeping gene 18s rRNA
COX2 expression after oxidative insult ([1]; 6 μM, 24 hours): 4.90 normalized fluorescence units vs housekeeping gene 18s rRNA
COX2 expression after oxidative insult ([1]; 9 μM, 3 hours): 5.10 normalized fluorescence units vs housekeeping gene 18s rRNA
COX2 expression after oxidative insult ([1]; 9 μM, 24 hours): 4.78 normalized fluorescence units vs housekeeping gene 18s rRNA
Expression of COX2 ([2]; 3 μM): 5.00 normalized fluorescence units vs housekeeping gene 18s rRNA
Expression of COX2 ([2]; 6 μM): 4.90 normalized fluorescence units vs housekeeping gene 18s rRNA

C[C@H]1[C@H](C)CC[C@]2(C)CC[C@]3(C)C(=CC[C@@H]4[C@@]5(C)CC[C@@H](O)[C@](C)(C(=O)O)[C@@H]5CC[C@]43C)[C@H]12 [boswellic acid]
COX2 expression after oxidative insult ([1]; 100 μM, 3 hours): 7.80 normalized fluorescence units vs housekeeping gene 18s rRNA
COX2 expression after oxidative insult ([1]; 100 μM, 24 hours): 8.00 normalized fluorescence units vs housekeeping gene 18s rRNA
COX2 expression after oxidative insult ([1]; 300 μM, 3 hours): 8.10 normalized fluorescence units vs housekeeping gene 18s rRNA
COX2 expression after oxidative insult ([1]; 300 μM, 24 hours): 8.90 normalized fluorescence units vs housekeeping gene 18s rRNA
